According to US20250230193A1, “CYCLIC COMPOUND HAVING SELECTIVE KRAS INHIBITORY EFFECT ON HRAS AND NRAS” (CHUGAI SEIYAKU KABUSHIKI KAISHA, priority 2022, published 2025):
*1 amine or outer side, *2 acyl side, *3 side chain or, on linkers, in order; H or OH if unused. Where a SMILES comes first, the peptide text is derived from it. Bridges are numbered along the chain shown (N, C = ends). [ ]: non-standard residue; d: D form. The star is where a group is joined. hPhe(3-Cl-4-CF3) = N[C@@H](CCc1ccc(C(F)(F)F)c(Cl)c1)C(=O)O; NPrPhe(4-CF3) = CCCN[C@@H](Cc1ccc(C(F)(F)F)cc1)C(=O)O; NMePhe(4-Me) = CN[C@@H](Cc1ccc(C)cc1)C(=O)O; X4 = CCCN([C@@H](COCCC(C)C)C(=O)[*:2])[*:1]; NMeGly(cPent) = CN[C@H](C(=O)O)C1CCCC1; NMeD = CN[C@@H](CC(=O)O)C(=O)O; NMeL = CN[C@@H](CC(C)C)C(=O)O; NMeS = CN[C@@H](CO)C(=O)O; Morpholide = C1CN(*)CCO1; Ac5c = NC1(C(=O)O)CCCC1; Ac4c = NC1(C(=O)O)CCC1; Sar = CNCC(=O)O

Experiments:
[1] = biological target: GDP-bound NRAS wild-type protein (Homo sapiens, UniProt P01111); experiment: Binding to NRAS by surface plasmon resonance (SPR), Single Cycle Kinetics; settings: for NRAS/KRAS (ratio of KD value with respect to NRAS to KD value with respect to KRAS) / NRAS/KRAS (ratio of KD value for NRAS to KD value for KRAS): GDP-bound NRAS wild-type vs GDP-bound KRAS wild-type
[2] = biological target: GDP-bound HRAS wild-type protein (Homo sapiens, UniProt P01112); experiment: Binding to HRAS by surface plasmon resonance (SPR), Single Cycle Kinetics; settings: for HRAS/KRAS (ratio of KD value with respect to HRAS to KD value with respect to KRAS) / HRAS/KRAS (ratio of KD value for HRAS to KD value for KRAS): GDP-bound HRAS wild-type vs GDP-bound KRAS wild-type
Chain of GDP-bound HRAS wild-type protein (P01112 whole entry): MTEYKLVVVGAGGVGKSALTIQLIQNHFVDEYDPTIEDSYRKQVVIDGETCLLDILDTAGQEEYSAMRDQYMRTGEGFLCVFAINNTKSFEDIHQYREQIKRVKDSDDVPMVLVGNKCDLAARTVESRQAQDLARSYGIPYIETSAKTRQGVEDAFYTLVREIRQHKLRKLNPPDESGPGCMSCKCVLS

Chain of GDP-bound NRAS wild-type protein (P01111 whole entry): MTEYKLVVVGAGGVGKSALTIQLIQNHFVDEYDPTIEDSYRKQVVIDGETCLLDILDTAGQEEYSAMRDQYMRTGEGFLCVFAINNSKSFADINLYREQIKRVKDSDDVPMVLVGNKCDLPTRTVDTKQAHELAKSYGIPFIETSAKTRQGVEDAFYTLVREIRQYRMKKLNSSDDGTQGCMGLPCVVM

With `CCO[C@@H]1C[C@H]2C(=O)NC3(CCC3)C(=O)N(C)[C@@H](C3CCCC3)C(=O)N(CCC3CCCC3)[C@H](C(=O)N3CCOCC3)CC(=O)N(C)[C@@H](CC)C(=O)N[C@@H]([C@@H](C)CC)C(=O)N(C)CC(=O)N(C)[C@H]3C/C=C\CCN(C3=O)[C@@H](Cc3ccc(C(F)(F)F)cc3)C(=O)N(C)CC(=O)N[C@@H](CCc3cc(F)c(C(F)(F)F)c(F)c3)C(=O)N2C1` [PP0981] the “NRAS/KRAS (ratio of KD value with respect to NRAS to KD value with respect to KRAS)” value ([1]; KD ratio, SPR) was “AA (a compound having 20 or more is denoted as AA)” and the “HRAS/KRAS (ratio of KD value with respect to HRAS to KD value with respect to KRAS)” value ([2]; KD ratio, SPR) was “A (a compound having 10 or more and less than 20 is denoted as A)”.

For `CC[C@H](C)[C@@H]1NC(=O)[C@H](CC2CC2)N(C)C(=O)C[C@@H](C(=O)N(C)C)N(C)C(=O)[C@H](C2CCCC2)N(C)C(=O)C2(CC(C)(C)C2)NC(=O)[C@@H]2C[C@@H](F)CN2C(=O)[C@H](CCc2cc(F)c(C(F)(F)F)c(F)c2)NC(=O)CN(C)C(=O)[C@H](Cc2ccc(C)cc2)N2CC/C=C\C[C@@H](C2=O)N(C)C(=O)CN(C)C1=O` [PP2804], the “NRAS/KRAS (ratio of KD value with respect to GDP-bound NRAS wild-type protein to KD value with respect to KRAS)” value ([1]; KD ratio NRAS/KRAS, class symbols) was “A (a compound having 10 or more and less than 20 is denoted as A)” and the “HRAS/KRAS (ratio of KD value with respect to GDP-bound HRAS wild-type protein to KD value with respect to KRAS)” value ([2]; KD ratio HRAS/KRAS, class symbols) was “A (a compound having 10 or more and less than 20 is denoted as A)”.

`C#CCN1CC(=O)N(C)[C@H]2C/C=C\CCN(C2=O)[C@@H](Cc2ccc(C)cc2)C(=O)N(C)CC(=O)N[C@@H](CCc2cc(F)c(C(F)(F)F)c(F)c2)C(=O)N2C[C@H](OCC)C[C@H]2C(=O)NC2(CC(C)(C)C2)C(=O)N(C)[C@@H](C2CCCC2)C(=O)N(C)[C@H](C(=O)N(C)C)CC(=O)N(C)[C@@H](CC(C)C)C(=O)N[C@@H]([C@@H](C)CC)C1=O` [PP2052] was tested, and the “NRAS/KRAS (ratio of KD value with respect to NRAS to KD value with respect to KRAS)” value ([1]; SPR) was “A (a compound having 10 or more and less than 20 is denoted as A)” and the “HRAS/KRAS (ratio of KD value with respect to HRAS to KD value with respect to KRAS)” value ([2]; SPR) was “A (a compound having 10 or more and less than 20 is denoted as A)”.

In the case of `CCCN1C(=O)CN(C)C(=O)CN(C)C(=O)[C@H]([C@@H](C)CC)NC(=O)[C@H](CC(C)C)N(C)C(=O)C[C@@H](C(=O)N2CCOCC2)N(C)C(=O)[C@H](C2CCCC2)N(C)C(=O)C2(CCC2)NC(=O)[C@@H]2CCCN2C(=O)[C@H](CCc2ccc(C(F)(F)F)c(Cl)c2)NC(=O)CN(C)C(=O)[C@@H]1COCCC(C)C` [PP1817] ([NMeL]I[Sar][Sar][X4][Sar][hPhe(3-Cl-4-CF3)]P[Ac4c][NMeGly(cPent)][NMeD]-Morpholide; lactam N-11), the “NRAS/KRAS (ratio of KD value for NRAS to KD value for KRAS)” value ([1]; KD ratio, SPR) is reported as “C (A compound having a KD ratio of 0.1 or more and less than 3 is denoted as C)” and the “HRAS/KRAS (ratio of KD value for HRAS to KD value for KRAS)” value ([2]; KD ratio, SPR) is reported as “C (A compound having a KD ratio of 0.1 or more and less than 3 is denoted as C)”.

With `CC[C@H](C)[C@@H]1NC(=O)[C@H](CC(C)C)N(C)C(=O)C[C@@H](C(=O)N2CCOCC2)N(C)C(=O)[C@H](C2CCCC2)N(C)C(=O)C2(CCCC2)NC(=O)[C@@H]2CCCN2C(=O)[C@H](CCc2ccc(C(F)(F)F)c(Cl)c2)NC(=O)CN(C)C(=O)[C@H](Cc2ccc(C)cc2)N(C)C(=O)[C@H](CO)N(C)C(=O)CN(C)C1=O` [PP0037] ([NMeL]I[Sar][NMeS][NMePhe(4-Me)][Sar][hPhe(3-Cl-4-CF3)]P[Ac5c][NMeGly(cPent)][NMeD]-Morpholide; lactam N-11) the “NRAS/KRAS (ratio of KD for GDP-bound NRAS wild-type to KD for KRAS)” value ([1]; KD ratio NRAS/KRAS, SPR) was “C (A compound having a KD ratio of 0.1 or more and less than 3 is denoted as C)” and the “HRAS/KRAS (ratio of KD for GDP-bound HRAS wild-type to KD for KRAS)” value ([2]; KD ratio HRAS/KRAS, SPR) was “C (A compound having a KD ratio of 0.1 or more and less than 3 is denoted as C)”.

With `CCO[C@@H]1C[C@H]2C(=O)NC(C)(C)C(=O)N(C)[C@@H](C3CCCC3)C(=O)N(C)[C@H](C(=O)N(C)CC)CC(=O)N(C)[C@@H](CC(C)C)C(=O)N[C@@H]([C@@H](C)CC)C(=O)N(C)CC(=O)N(C)[C@H]3C/C=C\CCN(C3=O)[C@@H](Cc3ccc(C(F)(F)F)cc3)C(=O)N(C)CC(=O)N[C@@H](CCc3cc(F)c(C(F)(F)F)c(F)c3)C(=O)N2C1` [PP1937] the “NRAS/KRAS (ratio of KD value for NRAS to KD value for KRAS)” value ([1]; KD ratio, SPR) was “A (a compound having 10 or more and less than 20 is denoted as A)” and the “HRAS/KRAS (ratio of KD value for HRAS to KD value for KRAS)” value ([2]; KD ratio, SPR) was “A (a compound having 10 or more and less than 20 is denoted as A)”.

In the case of `CCCN1C(=O)CN(C)C(=O)CN(C)C(=O)[C@H]([C@@H](C)CC)NC(=O)[C@H](CC(C)C)N(C)C(=O)C[C@@H](C(=O)N(C)C)N(C)C(=O)[C@H](C2CCCC2)N(C)C(=O)C2(CCC2)NC(=O)[C@@H]2CCCN2C(=O)[C@H](CCc2ccc(C(F)(F)F)c(Cl)c2)NC(=O)CN(C)C(=O)[C@@H]1Cc1ccc(C(F)(F)F)cc1` [PP0412] ([NMeL]I[Sar][Sar][NPrPhe(4-CF3)][Sar][hPhe(3-Cl-4-CF3)]P[Ac4c][NMeGly(cPent)][NMeD]-NMe2; lactam N-11), the “NRAS/KRAS (ratio of KD value with respect to GDP-bound NRAS wild-type protein to KD value with respect to KRAS)” value ([1]; KD ratio NRAS/KRAS, SPR) is reported as “B (a compound having 3 or more and less than 10 is denoted as B)” and the “HRAS/KRAS (ratio of KD value with respect to GDP-bound HRAS wild-type protein to KD value with respect to KRAS)” value ([2]; KD ratio HRAS/KRAS, SPR) is reported as “C (A compound having a KD ratio of 0.1 or more and less than 3 is denoted as C)”.
